Source: patent publication US20220386606A1, “SPECIFICALLY SUBSTITUTED 3-PHENYL-5-SPIROCYCLOPENTYL-3-PYRROLIN-2-ONES AND THEIR USE AS HERBICIDES” (Bayer Aktiengesellschaft, priority 2019, published 2022)

What was measured:
[1] = test system: AVEFA; assay: Pre-emergence herbicidal action against AVEFA; format: in vivo, Avena fatua; settings: 320 g/ha, scored visually after 3 weeks vs untreated controls
Method in brief: (§1)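 Pre-emergence soil-surface application: WP/EC in water, 600 to 800 L/ha, + 0.2% wetting agent, onto soil-covered seeds in sandy loam. Greenhouse, 3 wk. Visual % activity vs untreated (100% = dead).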

[2] = test system: ALOMY; assay: Pre-emergence herbicidal action against ALOMY; format: in vivo, Alopecurus myosuroides; settings: 320 g/ha, scored visually after 3 weeks vs untreated controls
Method in brief: as §1

[3] = test system: DIGSA; assay: Post-emergence herbicidal action against DIGSA; format: in vivo, Digitaria sanguinalis; settings: 80 g/ha, visual assessment about 3 weeks after treatment vs untreated controls
Method in brief: (§2)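 Sow in sandy loam and grow in the greenhouse for 2 to 3 weeks to the one-leaf stage. Spray the compound as an aqueous suspension or emulsion with 0.2% wetting agent, 600 to 800 l/ha water rate. Hold about 3 weeks, then score damage visually versus controls.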

[4] = test system: SETVI; assay: Post-emergence herbicidal action against SETVI; format: in vivo, Setaria viridis; settings: 80 g/ha, visual assessment about 3 weeks after treatment vs untreated controls
Method in brief: as §2

[5] = test system: DIGSA; assay: Pre-emergence herbicidal action against DIGSA; format: in vivo, Digitaria sanguinalis; settings: 320 g/ha, scored visually after 3 weeks vs untreated controls
Method in brief: as §1

[6] = test system: AMARE; assay: Pre-emergence herbicidal action against AMARE; format: in vivo, Amaranthus retroflexus; settings: 320 g/ha
Method in brief: as §1

[7] = test system: VERPE; assay: Pre-emergence herbicidal action against VERPE; format: in vivo, Veronica persica; settings: 320 g/ha
Method in brief: as §1

[8] = test system: ECHCG; assay: Pre-emergence herbicidal action against ECHCG; format: in vivo, Echinochloa crus-galli; settings: 320 g/ha, scored visually after 3 weeks vs untreated controls
Method in brief: as §1

[9] = test system: VIOTR; assay: Pre-emergence herbicidal action against VIOTR; format: in vivo, Viola tricolor; settings: 320 g/ha
Method in brief: as §1

[10] = test system: SETVI; assay: Pre-emergence herbicidal action against SETVI; format: in vivo, Setaria viridis; settings: 320 g/ha, scored visually after 3 weeks vs untreated controls
Method in brief: as §1

[11] = test system: ECHCG; assay: Post-emergence herbicidal action against ECHCG; format: in vivo, Echinochloa crus-galli; settings: 80 g/ha, visual assessment about 3 weeks after treatment vs untreated controls
Method in brief: as §2

[12] = test system: LOLRI; assay: Pre-emergence herbicidal action against LOLRI (Table 8, titled post-emergence at 320 g/ha); format: in vivo, Lolium rigidum; settings: table stands in the pre-emergence section
Method in brief: as §1

[13] = test system: ABUTH; assay: Post-emergence herbicidal action against ABUTH; format: in vivo, Abutylon threophrasti; settings: 80 g/ha, visual assessment about 3 weeks after treatment vs untreated controls
Description: Seeds of monocotyledonous and dicotyledonous weed and crop plants are laid out in sandy loam soil in wood-fiber pots, covered with soil and cultivated in a greenhouse under good growth conditions. 2 to 3 weeks after sowing, the test plants are treated at the one-leaf stage. The compounds of the invention, formulated in the form of wettable powders (WP) or as emulsion concentrates (EC), are then sprayed onto the green parts of the plants as aqueous suspension or emulsion at a water application rate equating to 600 to 800 l/ha with addition of 0.2% wetting agent. After the test plants have been left to stand in the greenhouse under optimal growth conditions for about 3 weeks, the action of the preparations is assessed visually in comparison to untreated controls (herbicidal action in percent (%): 100% activity=the plants have died, 0% activity=like control plants).

[14] = test system: ALOMY; assay: Post-emergence herbicidal action against ALOMY; format: in vivo, Alopecurus myosuroides; settings: 80 g/ha, visual assessment after about 3 weeks
Method in brief: as §2

[15] = test system: LOLRI; assay: Post-emergence herbicidal action against LOLRI; format: in vivo, Lolium rigidum; settings: 80 g/ha, visual assessment about 3 weeks after treatment vs untreated controls
Method in brief: as §2

[16] = test system: AVEFA; assay: Post-emergence herbicidal action against AVEFA; format: in vivo, Avena fatua; settings: 80 g/ha, visual assessment after about 3 weeks
Method in brief: as §2

[17] = test system: MATIN; assay: Pre-emergence herbicidal action against MATIN; format: in vivo; settings: 320 g/ha
Description: (§3) Seeds of monocotyledonous and dicotyledonous weed plants and crop plants are laid out in sandy loam soil in wood-fiber pots and covered with soil. The compounds of the invention, formulated in the form of wettable powders (WP) or as emulsion concentrates (EC), are then applied to the surface of the covering soil as aqueous suspension or emulsion at a water application rate equating to 600 to 800 L/ha with addition of 0.2% wetting agent.
(§4) After the treatment, the pots are placed in a greenhouse and kept under good growth conditions for the trial plants. The damage to the test plants is scored visually after a test period of 3 weeks by comparison with untreated controls (herbicidal activity in percent (%): 100% activity=the plants have died, 0% activity=like control plants).

[18] = test system: POLCO; assay: Pre-emergence herbicidal action against POLCO; format: in vivo, Polygonum convolvulus; settings: 320 g/ha
Description: as §3, §4

Row | SMILES | Pre-emergence action against AVEFA in % [1] [%] | Pre-emergence action against ALOMY in % [2] [%] | Post-emergence action against DIGSA in % [3] [%] | Post-emergence action against SETVI in % [4] [%] | Pre-emergence action against DIGSA in % [5] [%] | Pre-emergence action against AMARE in % [6] [%] | Pre-emergence action against VERPE in % [7] [%] | Pre-emergence action against ECHCG in % [8] [%] | Pre-emergence action against VIOTR in % [9] [%] | Pre-emergence action against SETVI in % [10] [%] | Post-emergence action against ECHCG in % [11] [%] | Pre-emergence herbicidal action against LOLRI in % [12] [%] | Post-emergence action against ABUTH in % [13] [%] | Post-emergence action against ALOMY in % [14] [%] | Post-emergence action against LOLRI in % [15] [%] | Post-emergence action against AVEFA in % [16] [%] | Pre-emergence action against MATIN in % [17] [%] | Pre-emergence action against POLCO in % [18] [%]
1 | CC#Cc1cc(Br)c(C2=C(OC(=O)C(C)C)C3(CCC(COCC)C3)NC2=O)c(OC)c1 (centres unmarked) [Example P-23] | 100 | 100 | 100 | 100 | 100 | 90 | 90 | 100 | 100 | 100 | 100 | 100 | 80 | 100 | 90 |  |  | 
2 | CC#Cc1cc(C)c(C2=C(OC(=O)OCC)C3(CCC(COCC)C3)NC2=O)c(F)c1 (centres unmarked) [Example P-53] | 90 | 100 | 100 |  | 100 |  |  | 100 | 80 | 100 | 100 | 100 | 80 | 100 | 100 | 90 | 90 | 
3 | CC#Cc1cc(C)c(C2=C(OC(=O)OCC)C3(CCC(COCCOC)C3)NC2=O)c(Cl)c1 (centres unmarked) [Example P-76] | 100 | 100 | 90 | 100 | 100 | 100 | 100 | 100 | 100 | 100 | 100 | 100 |  | 100 | 100 | 90 |  | 100
4 | CC#Cc1cc(C)c(C2=C(OC(=O)OCC)C3(CCC(COCCC)C3)NC2=O)c(Cl)c1 (centres unmarked) [Example P-86] | 80 | 100 | 90 | 100 | 100 | 100 | 100 | 100 | 100 | 100 | 100 | 100 |  | 90 | 100 |  | 80 | 90
5 | CC#Cc1cc(Br)c(C2=C(OC(=O)OCC)C3(CCC(COCC)C3)NC2=O)c(OCC)c1 (centres unmarked) [Example P-89] | 100 | 100 | 90 | 100 | 100 |  |  | 100 | 80 | 100 | 100 | 100 |  | 100 | 90 |  |  | 100
